Values quoted from earlier work in US6623763B2, “Pharmaceutical preparation adhering to the skin, in particular a transdermal therapeutic system for the release of 17-β-estradiol to the human organism” (LTS Lohmann Therape-System AG, priority 1996, dated 2003).

How the values were obtained:
[1] = tested on: Alzheimer's and Parkinson's disease; details: uniform supply of estradiol

Row | temperature of short-term heat treatment without decomposition | SMILES | efficacy for prophylaxis of Alzheimer's and Parkinson's disease [1]
1 | up to 170 °C | C[C@]12CC[C@@H]3c4ccc(O)cc4CC[C@H]3[C@@H]1CC[C@@H]2O [17-β-estradiol semihydrate, 17-β-estradiol-semihydrate] | 
2 |  | C[C@]12CC[C@@H]3c4ccc(O)cc4CC[C@H]3[C@@H]1CC[C@@H]2O [17-β-estradiol] | effective
